# Results taken from patent US20170008921A1, “C-3 NOVEL TRITERPENONE WITH C-28 REVERSE AMIDE DERIVATIVES AS HIV INHIBITORS” (HETERO RESEARCH FOUNDATION, priority 2015, published 2017).
# Assays:
# [1] = Cyto-toxicity (MTT assay); assay type: cell-based
# [2] = Single dose oral pharmacokinetic study; assay type: in vivo; details: mouse, Mice oral PK @30 mg/kg, plasma, vehicle 10% Solutol+20% PEG; for AUC(0-t): read-out: AUC0-t; for Cmax: read-out: Cmax
# Method: The test item was administered through oral route to animals (rat/mice) at 30 mg/kg dose in a suitable vehicle (10% Solutol+20% PEG) at 10 ml/kg dose volume. Blood samples (˜50 μL at each time point) were collected from retro-orbital plexus using K3 EDTA as anticoagulant in eppendorf tubes at defined time intervals 30 minutes, 1 hour, 2 hour, 4 hour, 8 hour, 24 hour & 48 hour under light ether anaesthesia. The samples were centrifuged at 3500×g to separate plasma and stored at −80° C. until analysis. Plasma 25 μl for Mice were processed as per described in sample preparation.
# Standard solutions of the test compound 1 mg/mL solutions were prepared in DMSO and further dilutions were made in methanol. […] To the test compound plasma extraction was carried out using Acetonitrile precipitation. After reconstitution with solvent (50% Acetonitrile in Buffer) samples were analyzed by LCMSMS to get the concentrations to calculate PK Parameters.
Structure (SMILES),"viability at 4 days, 0.01 µM [1]","viability at 4 days, 0.1 µM [1]","viability at 4 days, 1 µM [1]",AUC(0-t) [2],Cmax [2]
"Cc1ccc(C(=O)NC2(C(=O)N[C@@]34CC[C@]5(C)[C@H](CC[C@@H]6[C@@]7(C)CC[C@H](OC(=O)[C@H]8C[C@@H](C(=O)O)C8(C)C)C(C)(C)[C@@H]7CC[C@]65C)C3=C(C(C)C)C(=O)C4)CC2)cn1 [Example 38, (1R,3S)-3-((((3aR,5aR,5bR,7aR,9S,11aR,11bR,13aS)-1-isopropyl-5a,5b,8,8,11a-pentamethyl-3a-(1-(6-methylnicotinamido)cyclopropane-1-carbox amido)-2-oxo-3,3a,4,5,5a,5b,6,7,7a,8,9,10,11,11a,11b,12,13,13a-octadecahydro-2H-cyclopenta[a]chrysen-9-yl)oxy)carbonyl)-2,2-dimethylcyclobutane-1-carboxylic acid]",20%,9%,2%,114 µg·h/mL,10100 ng/mL
"Cc1ccc(C(=O)NC2(C(=O)N[C@@]34CC[C@]5(C)[C@H](CC[C@@H]6[C@@]7(C)CC[C@H](OC(=O)[C@H]8C[C@@H](C(=O)O)C8(C)C)C(C)(C)[C@@H]7CC[C@]65C)C3=C(C(C)C)C(=O)C4)CCCCC2)cc1 [Example 50, (1R,3S)-3-((((3aR,5aR,5bR,7aR,9S,11aR,11bR,13aS)-1-isopropyl-5a,5b,8,8,11a-pentamethyl-3a-(1-(4-methylbenzamido)cyclohexane-1-carboxamido)-2-oxo-3,3a,4,5,5a,5b,6,7,7a,8,9,10,11,11a,11b,12,13,13a-octadecahydro-2H-cyclopenta[a]chrysen 9-yl)oxy)carbonyl)-2,2-dimethylcyclobutane-1-carboxylic acid]",21%,0%,0%,454 µg·h/mL,23300 ng/mL
"Cc1nc(C)c(C(=O)NC(C)(C)C(=O)N[C@@]23CC[C@]4(C)[C@H](CC[C@@H]5[C@@]6(C)CC[C@H](OC(=O)[C@H]7C[C@@H](C(=O)O)C7(C)C)C(C)(C)[C@@H]6CC[C@]54C)C2=C(C(C)C)C(=O)C3)s1 [Example 14, (1R,3S)-3-((((3aR,5aR,5bR,7aR,9S,11aR,11bR,13aS)-3a-(2-(2,4-dimethylthiazole-5-carboxamido)-2-methylpropanamido)-1-isopropyl-5a,5b,8,8,11a-pentamethyl-2-oxo-3,3a,4,5,5a,5b,6,7,7a,8,9,10,11,11a,11b,12,13,13a-octadecahydro-2H-cyclopenta[a]chrysen-9-yl)oxy)carbonyl)-2,2-dimethylcyclobutane-1-carboxylic acid]",44%,8%,2%,377 µg·h/mL,26800 ng/mL
"CC(C)C1=C2[C@H]3CC[C@@H]4[C@@]5(C)CC[C@H](OC(=O)[C@H]6C[C@@H](C(=O)O)C6(C)C)C(C)(C)[C@@H]5CC[C@@]4(C)[C@]3(C)CC[C@@]2(NC(=O)C2(NC(=O)c3ccc(Cl)cc3)CCC2)CC1=O [Example 42, (1R,3S)-3-((((3aR,5aR,5bR,7aR,9S,11aR,11bR,13aS)-3a-(1-(4-chlorobenzamido)cyclobutane-1-carboxamido)-1-isopropyl-5a,5b,8,8,11a-pentamethyl-2-oxo-3,3a,4,5,5a,5b,6,7,7a,8,9,10,11,11a,11b,12,13,13a-octadecahydro-2H-cyclopenta[a]chrysen-9-yl)oxy)carbonyl)-2,2-dimethylcyclobutane-1-carboxylic acid]",27%,5%,4%,481 µg·h/mL,22900 ng/mL
"CC(C)C1=C2[C@H]3CC[C@@H]4[C@@]5(C)CC[C@H](OC(=O)[C@H]6C[C@@H](C(=O)O)C6(C)C)C(C)(C)[C@@H]5CC[C@@]4(C)[C@]3(C)CC[C@@]2(NC(=O)C(C)(C)NC(=O)c2ccccc2)CC1=O [Example 3, (1R,3S)-3-((((3aR,5aR,5bR,7aR,9S,11aR,11bR,13aS)-3a-(2-benzamido-2-methylpropanamido)-1-isopropyl-5a,5b,8,8,11a-pentamethyl-2-oxo-3,3a,4,5,5a, 5b,6,7,7a,8,9,10,11,11a,11b,12,13,13a-octadecahydro-2H-cyclopenta[a]chrysen-9-yl)oxy)carbonyl)-2,2-dimethylcyclobutane-1-carboxylic acid]",32%,13%,7%,545 µg·h/mL,29600 ng/mL
"Cc1ccc(C(=O)NC(C)(C)C(=O)N[C@@]23CC[C@]4(C)[C@H](CC[C@@H]5[C@@]6(C)CC[C@H](OC(=O)[C@H]7C[C@@H](C(=O)O)C7(C)C)C(C)(C)[C@@H]6CC[C@]54C)C2=C(C(C)C)C(=O)C3)cc1 [Example 23, (1R,3S)-3-((((3aR,5aR,5bR,7aR,9S,11aR,11bR,13aS)-1-isopropyl-5a,5b,8,8,11a-pentamethyl-3a-(2-methyl-2-(4-methylbenzamido)propanamido)-2-oxo-3,3a,4,5,5a,5b,6,7,7a,8,9,10,11,11a,11b,12,13,13a-octadecahydro-2H-cyclopenta[a]chrysen-9-yl)oxy)carbonyl)-2,2-dimethylcyclobutane-1-carboxylic acid]",34%,8%,4%,590 µg·h/mL,29700 ng/mL
"CC(C)C1=C2[C@H]3CC[C@@H]4[C@@]5(C)CC[C@H](OC(=O)[C@H]6C[C@@H](C(=O)O)C6(C)C)C(C)(C)[C@@H]5CC[C@@]4(C)[C@]3(C)CC[C@@]2(NC(=O)C2(NC(=O)c3ccc(Cl)cc3)CC2)CC1=O [Example 37, (1R,3S)-3-((((3aR,5aR,5bR,7aR,9S,11aR,11bR,13aS)-3a-(1-(4-chlorobenzamido)cyclopropane-1-carboxamido)-1-isopropyl-5a,5b,8,8,11a-pentamethyl-2-oxo-3,3a,4,5,5a,5b,6,7,7a,8,9,10,11,11a,11b,12,13,13a-octadecahydro-2H-cyclopenta[a]chrysen-9-yl)oxy)carbonyl)-2,2-dimethylcyclobutane-1-carboxylic acid]",26%,4%,1%,874 µg·h/mL,38800 ng/mL
"CC(C)C1=C2[C@H]3CC[C@@H]4[C@@]5(C)CC[C@H](OC(=O)[C@H]6C[C@@H](C(=O)O)C6(C)C)C(C)(C)[C@@H]5CC[C@@]4(C)[C@]3(C)CC[C@@]2(NC(=O)C(C)(C)NC(=O)c2ccc(N)nc2)CC1=O [Example 6, (1R,3S)-3-((((3aR,5aR,5bR,7aR,9S,11aR,11bR,13aS)-3a-(2-(6-aminonicotinamido)-2-methylpropanamido)-1-isopropyl-5a,5b,8,8,11a-pentamethyl-2-oxo-3,3a,4,5,5a,5b,6,7,7a,8,9,10,11,11a,11b,12,13,13a-octadecahydro-2H-cyclopenta[a]chrysen-9-yl)oxy)carbonyl)-2,2-dimethylcyclobutane-1-carboxylic acid]",60%,19%,4%,100 µg·h/mL,11100 ng/mL
"CC(C)C1=C2[C@H]3CC[C@@H]4[C@@]5(C)CC[C@H](OC(=O)[C@H]6C[C@@H](C(=O)O)C6(C)C)C(C)(C)[C@@H]5CC[C@@]4(C)[C@]3(C)CC[C@@]2(NC(=O)C2(NC(=O)c3ccc(Cl)cc3)CCCCC2)CC1=O [Example 48, (1R,3S)-3-((((3aR,5aR,5bR,7aR,9S,11aR,11bR,13aS)-3a-(1-(4-chlorobenzamido)cyclohexane-1-carboxamido)-1-isopropyl-5a,5b,8,8,11a-pentamethyl-2-oxo-3,3a,4,5,5a,5b,6,7,7a,8,9,10,11,11a,11b,12,13,13a-octadecahydro-2H-cyclopenta[a]chrysen-9-yl)oxy)carbonyl)-2,2-dimethylcyclobutane-1-carboxylic acid]",44%,12%,4%,477 µg·h/mL,20300 ng/mL
"CC(C)C1=C2[C@H]3CC[C@@H]4[C@@]5(C)CC[C@H](OC(=O)[C@H]6C[C@@H](C(=O)O)C6(C)C)C(C)(C)[C@@H]5CC[C@@]4(C)[C@]3(C)CC[C@@]2(NC(=O)C(C)(C)NC(=O)c2ccc3ccccc3n2)CC1=O [Example 28, (1R,3S)-3-((((3aR,5aR,5bR,7aR,9S,11aR,11bR,13aS)-1-isopropyl-5a,5b,8,8,11a-pentamethyl-3a-(2-methyl-2-(quinoline-2-carboxamido)propanamido)-2-oxo-3,3a,4,5,5a,5b,6,7,7a,8,9,10,11,11a,11b,12,13,13a-octadecahydro-2H-cyclopenta[a]chrysen-9-yl)oxy)carbonyl)-2,2-dimethylcyclobutane-1-carboxylic acid]",21%,10%,6%,345 µg·h/mL,16200 ng/mL
"CC(C)C1=C2[C@H]3CC[C@@H]4[C@@]5(C)CC[C@H](OC(=O)[C@H]6C[C@@H](C(=O)O)C6(C)C)C(C)(C)[C@@H]5CC[C@@]4(C)[C@]3(C)CC[C@@]2(NC(=O)C(C)(C)NC(=O)CN(C)C)CC1=O [Example 59, (1R,3S)-3-((((3aR,5aR,5bR,7aR,9S,11aR,11bR,13aS)-3a-(2-(2-(dimethylamino)acetamido)-2-methylpropanamido)-1-isopropyl-5a,5b,8,8,11a-pentamethyl-2-oxo-3,3a,4,5,5a,5b,6,7,7a,8,9,10,11,11a,11b,12,13,13a-octadecahydro-2H-cyclopenta[a]chrysen-9-yl)oxy)carbonyl)-2,2-dimethylcyclobutane-1-carboxylic acid]",94%,15%,8%,186 µg·h/mL,13900 ng/mL
